Numbered stars: 1 amine (or outer) side, 2 acyl side, 3 side chain; on linkers, the order of the positions; unused ones are H or OH. Square brackets hold non-standard residues; d marks the D form. Ends that are not written are not given here. Peptide text beside a SMILES is read from it. * marks the point of attachment. X4 = O=C(O)[C@H]1OC(OCCOCCN*)[C@H](O)[C@@H](O)[C@@H]1O; Suc = O=C(CCC(=O)[*:2])[*:1]
Columns and labels:
[1] = tested on: B16-BL6 melanoma cells; experiment: Experimental melanoma metastasis in lungs caused by injection of B16-BL6 melanoma cells; type: in vivo, C57BL/6 female mice
Procedure: The tumor metastasis inhibitory activities of the peptide derivatives of the present invention were examined as follows.
Each of the following peptide derivatives according to the present invention, Compounds 1 to 13, 15, 19 to 22, 25, 32, 36, 37, 44, 47, 50, 56-1, 56-4, 59, 65, 68, 70, 73, 76, 77, 80, 84, 87, 89, 90, 94, 96, 99, 101, 103,106, 112, 114, 118 and 121 was mixed with B16-BL6 melanoma cells having a potent metastatic tendency in PBS so that 0.2 ml of the mixture contained 3000, 1000 or 500 μg of the peptide derivative and 5×10^6 of B16-BL6 melanoma cells. Then, 0.2 ml of each mixture was intravenously administered to each individual of a group of C57BL/6 female mice consisting of 5 mice. Fourteen days after the administration, the number of melanoma cell colony in lungs was determined and compared with that of the control mice, which were administered with PBS.
(§1) For comparison, the peptide fragments known to have tumor metastasis inhibition activity, Arg--Gly--Asp--Ser (SEQ ID NO:16) (Comparison A), Gly--Arg--Gly--Asp--Ser (SEQ ID NO:17) (Comparison B) and (Arg--Gly--Asp)n(n=5) (SEQ ID NO:18) as well as Reference Polymer A were also administered to the mice in the same manner as above.

[2] = tested on: L5178Y ML25 T-lymphoma cells; experiment: Experimental T-lymphoma metastasis in liver and spleen caused by injection of L5178Y ML25 T-lymphoma cells; type: in vivo, CDF1 (BALB/c×DBA/2) female mice; conditions: dose 1000 μg mixed with T-lymphoma cells, i.v., 14 days after; for Weight (g): Average ± SD Spleen: PBS control 0.28 ± 0.03, no tumor cells 0.08 ± 0; for Weight (g): Average ± SD Liver: PBS control 4.21 ± 0.49, no tumor cells 1.09 ± 0.11
Procedure: Separately, each of the following peptide derivatives of the present invention, Compound 1, 2, 8, 12, 20, 47, 56, 59, 67, 73 and 85, was mixed with L5178Y ML25 T-lymphoma cells in PBS so that 0.2 ml of the mixture contained 3000 or 1000 μg of the peptide derivative and 4×10^4 of the T-lymphoma cells. Then, 0.2 ml of each mixture was intravenously administered to each individual of a group of CDF1 (BALB/c×DBA/2) female mice consisting of 5 mice. Fourteen days after the administration, the weights of the livers and the spleens of the mice were determined and compared with those of the control mice.
as §1

[3] = Experiment 7, dose 500 μg, PBS control 85 ± 20
[4] = Experiment 1, dose 3000 μg mixed with B16-BL6 cells, i.v., lung colonies 14 days after, PBS control 116 ± 27
[5] = Experiment 2, dose 1000 μg mixed with B16-BL6 cells, i.v., lung colonies 14 days after, PBS control 84 ± 11
[6] = Experiment 5, dose 1000 μg, PBS control 91 ± 33
[7] = Experiment 3, dose 500 μg, lung colonies 14 days after, PBS control 145 ± 30
[8] = Experiment 6, dose 500 μg, PBS control 128 ± 24
[9] = Experiment 4, dose 500 μg, PBS control 116 ± 19

“6-O-Carboxymethyl-N-Acetylchitohexaose Carrying --Asp--Arg--Leu--Asp--Ser [Compound 94]” was tested. Which “Number of Colony Average ± SD” value [1, 3] did it give?
The value was 14 ± 3.

Which “Number of Colony Average ± SD” value [1, 3] does the source give for “6-O-Carboxymethyl-N-Acetylchitohexaose Carrying --Gly--Arg--Phe--Asp--Ser [Compound 96]” here?
The value was 9 ± 4.

How did the “Number of Colony Average ± SD” value [1, 3] turn out when “6-O-Sulfated-Carboxymethyl-N-Acetylchitooligosaccharide Carrying --Asp--Arg--D--Leu--Asp--Ser [Compound 99]” was run?
Its value is 3 ± 3.

Which “Number of Colony Average ± SD” value [1, 3] does the source give for “6-O-Sulfated-Carboxymethyl-N-Acetylchitooligosaccharide Carrying --Asp--Arg--D--Phe--Asp--Ser [Compound 101]” here?
Its value is 13 ± 6.

Which results are given for N=C(N)NCCC[C@H](N)C(=O)NCC(=O)N[C@@H](CC(=O)O)C(=O)N[C@@H](CO)C(=O)O [Comparison A, Arg--Gly--Asp--Ser]?
Weight (g): Average ± SD Spleen [2]: 0.22 ± 0.03 g; Weight (g): Average ± SD Liver [2]: 3.67 ± 1.04 g; Number of Colony Average ± SD [1, 4]: 70 ± 8; Number of Colony Average ± SD [1, 5]: 62 ± 9; Number of Colony Average ± SD ([1]; Experiment 3, dose 3000 μg, PBS control 145 ± 30): 92 ± 14; Number of Colony Average ± SD ([1]; Experiment 4, dose 3000 μg, PBS control 116 ± 19): 74 ± 11; Number of Colony Average ± SD ([1]; Experiment 5, dose 3000 μg, PBS control 91 ± 33): 60 ± 4; Number of Colony Average ± SD ([1]; Experiment 6, dose 3000 μg, PBS control 128 ± 24): 88 ± 20; Number of Colony Average ± SD ([1]; Experiment 7, dose 3000 μg, PBS control 85 ± 20): 51 ± 6

With N=C(N)NCCC[C@H](NC(=O)CN)C(=O)NCC(=O)N[C@@H](CC(=O)O)C(=O)N[C@@H](CO)C(=O)O [Comparison B, Gly--Arg--Gly--Asp--Ser] as the compound, how does the “Weight (g): Average ± SD Spleen” value [2] read?
Its value is 0.17 ± 0.03 g.

And the “Weight (g): Average ± SD Liver” value [2]?
The value was 2.24 ± 0.46 g.

And the “Number of Colony Average ± SD” value [1, 4]?
Its value is 50 ± 10.

What about the “Number of Colony Average ± SD” value [1, 5] of the same compound?
Its value is 40 ± 10.

And the “Number of Colony Average ± SD” value ([1]; Experiment 3, dose 1000 μg, PBS control 145 ± 30)?
The value was 89 ± 18.

And the “Number of Colony Average ± SD” value ([1]; Experiment 4, dose 1000 μg, PBS control 116 ± 19)?
Its value is 78 ± 8.

And the “Number of Colony Average ± SD” value [1, 6]?
Its value is 49 ± 7.

What about the “Number of Colony Average ± SD” value ([1]; Experiment 6, dose 1000 μg, PBS control 128 ± 24) of the same compound?
Its value is 76 ± 6.

What about the “Number of Colony Average ± SD” value ([1]; Experiment 7, dose 1000 μg, PBS control 85 ± 20) of the same compound?
The value was 50 ± 8.

How did the “Number of Colony Average ± SD” value [1, 4] turn out when CC(C)C[C@H](NC(=O)[C@@H](N)CCCNC(=N)N)C(=O)N[C@@H](CC(=O)O)C(=O)N[C@@H](CO)C(N)=O [Compound 9] (H-RLDS-NH2) was run?
The value was 22 ± 10.

With C[C@@H](NC(=O)[C@@H](N)CCCNC(=N)N)C(=O)N[C@@H](CC(=O)O)C(=O)N[C@H](C(N)=O)[C@@H](C)O [Compound 10] (H-R[dA]DT-NH2) as the compound, how does the “Number of Colony Average ± SD” value [1, 4] read?
The value was 58 ± 15.

Which “Number of Colony Average ± SD” value [1, 5] does the source give for CC(=O)N[C@@H](CC(=O)O)C(=O)N[C@H](CCCNC(=N)N)C(=O)N[C@@H](CC(C)C)C(=O)N[C@@H](CC(=O)O)C(=O)N[C@@H](CO)C(=O)O [Compound 32] (Ac-D[dR]LDS-OH) here?
Its value is 24 ± 5.

For CC(C)C[C@@H](NC(=O)[C@H](CCCNC(=N)N)NC(=O)[C@H](CO)NC(=O)[C@H](CC(=O)O)NC(=O)[C@@H](CC(C)C)NC(=O)[C@H](CCCNC(=N)N)NC(=O)[C@H](CO)NC(=O)[C@H](CC(=O)O)NC(=O)[C@@H](CC(C)C)NC(=O)[C@H](CCCNC(=N)N)NC(=O)[C@H](CO)NC(=O)[C@H](CC(=O)O)NC(=O)[C@@H](CC(C)C)NC(=O)[C@@H](N)CCCNC(=N)N)C(=O)N[C@@H](CC(=O)O)C(=O)N[C@@H](CO)C(=O)O [Compound 37] (H-R[dL]DSR[dL]DSR[dL]DSR[dL]DS-OH), which “Number of Colony Average ± SD” value [1, 7] is on record?
The value was 27 ± 11.

For CC(C)C[C@H](NC(=O)[C@H](CCCNC(=N)N)NC(=O)CCC(=O)NCCOCCOC1O[C@H](C(=O)O)[C@@H](O)[C@H](O)[C@H]1O)C(=O)N[C@@H](CC(=O)O)C(=O)N[C@@H](CO)C(=O)O (some centres unmarked) [Compound 80] ({X4-Suc}-RLDS-OH), which “Number of Colony Average ± SD” value [1, 8] is on record?
Its value is 36 ± 7.

With (Arg--Gly--Asp)n(n=5) [Comparison C] as the compound, how does the “Number of Colony Average ± SD” value ([1]; Experiment 1, dose 1000 μg mixed with B16-BL6 cells, i.v., lung colonies 14 days after, PBS control 116 ± 27) read?
Its value is 40 ± 15.

What about the “Number of Colony Average ± SD” value [1, 5] of the same compound?
The value was 23 ± 9.

And the “Number of Colony Average ± SD” value [1, 7]?
The value was 68 ± 9.

And the “Number of Colony Average ± SD” value [1, 6]?
The value was 39 ± 11.

And the “Number of Colony Average ± SD” value [1, 8]?
The value was 57 ± 12.

What about the “Number of Colony Average ± SD” value [1, 3] of the same compound?
Its value is 44 ± 16.

How did the “Number of Colony Average ± SD” value [1, 4] turn out when GRLDS [Compound 15] was run?
Its value is 43 ± 12.

“Iminodiacetic Acid-Tetracraboxylic Acid Derivative (β-Ala--Arg--Leu--Asp--Ser)4 [Compound 76]” was tested. Which “Number of Colony Average ± SD” value [1, 9] did it give?
Its value is 48 ± 5.

Which “Number of Colony Average ± SD” value [1, 7] does the source give for RLDSRLDSRLDSRLDS [Compound 36] here?
Its value is 46 ± 6.

For “R[dL]DR[dL]DR[dL]DR[dL]DR[dL]DR[dL]DR[dL]DR[dL]DR[dL]DR[dL]DR[dL]DR[dL]DR[dL]DR[dL]DR[dL]DR[dL]DR[dL]DR[dL]DR[dL]DR[dL]D [Compound 44]”, which “Number of Colony Average ± SD” value [1, 7] is on record?
Its value is 66 ± 15.

With “Succinyl Derivative of Chondroitin Sulfate Carrying --(Arg--D--Leu--Asp--Ser)2 [Compound 121]” as the compound, how does the “Number of Colony Average ± SD” value [1, 3] read?
Its value is 45 ± 11.

With “Succinylated CM-Chitin Carrying --(Arg--D--Leu--Asp--Ser)2 [Compound 112]” as the compound, how does the “Number of Colony Average ± SD” value [1, 3] read?
Its value is 14 ± 7.

With “Succinylated CM-Chitin Carrying --Gly--Arg--D--Leu--Asp--Ser [Compound 106]” as the compound, how does the “Number of Colony Average ± SD” value [1, 3] read?
The value was 1 ± 1.

For “Succinylated Chondroitin Sulfate Carrying --D--Arg--Phe--Asp--Ser [Compound 118]”, which “Number of Colony Average ± SD” value [1, 3] is on record?
The value was 43 ± 8.

For “Succinylated Pantaethylenehexaamine (β-Ala--Arg--Leu--Asp--Ser--NH--iPr)6 [Compound 77]”, which “Number of Colony Average ± SD” value [1, 9] is on record?
Its value is 41 ± 6.

“Succinylated Polyallylamine Carrying --(Asp--D--Arg--Phe--Asp--Ser)2 [Compound 103]” was tested. Which “Number of Colony Average ± SD” value [1, 3] did it give?
The value was 24 ± 8.

Which “Number of Colony Average ± SD” value [1, 3] does the source give for “Sulfated CM-Chitin Carrying --Gly--D--Arg--Leu--Asp--Ser [Compound 114]” here?
The value was 21 ± 11.

Which results are given for “Tetrahydrofuran-2,3,4,5-Tetracarboxylic Acid (Arg--Leu--Asp--Ser)4 (RLDS; also: four copies on tetrahydrofuran-2,3,4,5-tetracarboxylic acid core) [Compound 73]”?
Weight (g): Average ± SD Spleen [2]: 0.15 ± 0.05 g; Weight (g): Average ± SD Liver [2]: 1.95 ± 1.00 g; Number of Colony Average ± SD [1, 9]: 38 ± 7
